This passage reports IC50 and viability, T/C results from PubChem BioAssay AID1918939 (Molecular Pharmacology Branch, DTP, NCI, 2023).

Where “and” joins values, the source holds several entries; their conditions need not be identical. Equal entries are not always repeated.

The test system of the test is 653999-131-R-J2-PDC complex spheroid viability. Briefly: Anticancer human tumor 653999-131-R-J2-PDC patient-derived lung adenocarcinoma cell line growth inhibition. The following applies: for viability, T/C: stronger effect = lower value. An excerpt:
Multicellular complex tumor spheroid response to LSD1 Inhibitor Iadademstat in combination with a variety of drugs and investigational agents in selected tumor cell lines
The current study was undertaken to assess response to LSD1 inhibitors in combination with standard-of-care drugs and investigational agents in solid tumor complex spheroid models as well as in the K-562 leukemia. Complex spheroids include a stromal component modeled by human endothelial cells (HUVEC) and fibroblasts modeled by human mesenchymal stem cells (MSCs). The concentration ranges selected for each drug and investigational agent were based upon clinically achievable concentrations if the clinical Cmax of the agent was known.
Compounds. The drugs and investigational agents used in this study are listed on Table 1. All of the agents used, including staurosporine (NSC755774) and gemcitabine (NSC613327), were obtained from the Developmental Therapeutics Program, NCI. FDA-approved anticancer drugs are available from the NCI at http://dtp.nci.nih.gov/branches/dscb/oncology_drugset_explanation.html. Drugs and investigational agents were >95% pure by proton nuclear magnetic resonance (NMR) and liquid chromatography/mass spectrometry (LC/MS). Stock solutions were prepared at 400x in DMSO, stored at -70 degrees C, and diluted in fresh medium prior to their use. The final concentration of DMSO in cell culture wells never exceeded 0.25% (v/v). The FDA-approved anticancer drug set is available from the Developmental Therapeutics Program at https://dtp.cancer.gov/organization/dscb/obtaining/available_plates.htm. All drugs and investigational agents were tested over a range starting from a high concentration at or near the clinical Cmax and decreasing in half-log increments. If the clinical Cmax for an agent had not been determined, the highest concentration tested was 10 microM.
Cell Lines. The patient-derived cancer cell (PDC) lines: 292921-168-R-J2-PDC, K24384-001-R-PDC, and 521955-158-R2-J5-PDC pancreatic carcinomas, 556581-035-R-J1 ovarian carcinoma, 324938-238-R-J1-PDC, 855422-203-R-J1-PDC and 883617-216-R-J1-PDC urothelial bladder carcinomas, 743489-274-T-PDC renal cell carcinoma, 138582-R-J1 Merkel cell tumor, K60290-347-R-J1 and K57222-313-R-J1-PDC glioblastomas, 653999-131-R-J2-PDC, LG0703-F948-PDC, and 349418-098-R-PDC non-small cell lung carcinomas, 885512-296-R-J2-PDC, 171881-019-R-J1-PDC breast carcinomas and 186277-243-T-J2-PDC and 233499-124-R-J2-PDC colon carcinomas were obtained from the NCI Patient-Derived Models Repository (PDMR, https://pdmr.cancer.gov). The established cell lines NCI/ADR-RES (RRID:CVCL_14520 and OVCAR-5 (RRID:CVCL_1628) ovarian carcinomas, 786-O (RRID:CVCL_1051) and A498 (RRID:CVCL_A498) renal cell carcinoma, NCI-H211 (ATCC, cat. CRL-5824; RRID:CVCL_1529), NCI-H196 (ATCC, cat. CRL-5823, RRID:CVCL_1509), SW 1271 (ATCC, cat. CRL-2177, RRID:CVCL_1716) and NCI-H1876 (ATCC, cat. CRL-5902, RRID:CVCL_1503) small cell lung carcinomas, MDA-MB-231 (RRID:CVCL_0062) and MDA-MB-468 (RRID:CVCL_0419)breast carcinomas (10-12). Pooled donor human umbilical vein endothelial cells (HUVEC, Lonza, cat. CC-2519) and human mesenchymal stem cells (hMSC, Lonza, cat. PT-2501) were purchased from Lonza (Walkersville, MD).
Cell Culture. All cells were maintained in an incubator at 37 degrees C and 5% CO2 with 95% humidity. The PDC lines were cultured according to standard operating procedures established by the NCI PDMR (https://pdmr.cancer.gov). Briefly all PDCs were thawed and cultured in Matrigel-coated flasks prepared with a working solution of 1X Ham's F-12 nutrient mix, without supplementation (Invitrogen, Waltham, MA, cat. 11765054), 100 U/mL penicillin-streptomycin (Invitrogen, cat. 15140122), and 2.5% Matrigel (Corning Inc., Corning, NY, cat. 354248) for the first three passages. […]

[1] abbreviates: curve of first compound, second compound 0.1 µM.
The mark [2] stands for this setting: curve of first compound, second compound 0.316 µM.
The mark [3] stands for this setting: curve of first compound, second compound 1 µM.
Where [4] appears, read: curve of first compound, second compound 3.16 µM.
The mark [5] stands for this setting: curve of first compound, second compound 10 µM.
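Further: spheroids exposed to agents for seven days before readout.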

As usually defined, the IC50 is the concentration at which inhibition is half-maximal. By viability, T/C is commonly meant the ratio of treated to control. Consider `Cn1ncnc1C1c2n[nH]c(=O)c3cc(F)cc(c23)NC1c1ccc(F)cc1` (centres undefined) + NC1CCC(NC2CC2c2ccccc2)CC1, for which the IC50 by setting is: under setting [1], over 100 nM; under setting [2], over 100 nM; under setting [3], over 100 nM; under setting [4], over 100 nM; under setting [5], over 100 nM. Also, the viability, T/C was 86.9% (second compound 0.1 µM, first compound 0.000316 µM); 86.9% (second compound 0.1 µM, first compound 0.001 µM); 85.6% (second compound 0.1 µM, first compound 0.00316 µM); 73% (second compound 0.1 µM, first compound 0.01 µM); 80.9% (second compound 0.1 µM, first compound 0.0316 µM); 71.4% (second compound 0.1 µM, first compound 0.1 µM). In addition, the viability, T/C by setting is: (second compound 0.316 µM, first compound 0.000316 µM) 85.4%; (second compound 0.316 µM, first compound 0.001 µM) 82.5%; (second compound 0.316 µM, first compound 0.00316 µM) 82.1%; (second compound 0.316 µM, first compound 0.01 µM) 87.2%; (second compound 0.316 µM, first compound 0.0316 µM) 73.9%; (second compound 0.316 µM, first compound 0.1 µM) 86%. For the same molecule, the viability, T/C is 95.6% (second compound 1 µM, first compound 0.000316 µM); 81.3% (second compound 1 µM, first compound 0.001 µM); 82.9% (second compound 1 µM, first compound 0.00316 µM); 74.9% (second compound 1 µM, first compound 0.01 µM); 75.9% (second compound 1 µM, first compound 0.0316 µM); 78.1% (second compound 1 µM, first compound 0.1 µM). The viability, T/C reads like this: (second compound 3.16 µM, first compound 0.000316 µM) 94.6%; (second compound 3.16 µM, first compound 0.001 µM) 91.8%; (second compound 3.16 µM, first compound 0.00316 µM) 91.1%; (second compound 3.16 µM, first compound 0.01 µM) 87.3%; (second compound 3.16 µM, first compound 0.0316 µM) 76.7%; (second compound 3.16 µM, first compound 0.1 µM) 72.1%. In addition, the viability, T/C runs as follows: (second compound 10 µM, first compound 0.000316 µM) 96.9%; (second compound 10 µM, first compound 0.001 µM) 99.4%; (second compound 10 µM, first compound 0.00316 µM) 97.6%; (second compound 10 µM, first compound 0.01 µM) 84.5%; (second compound 10 µM, first compound 0.0316 µM) 72%; (second compound 10 µM, first compound 0.1 µM) 78.2%.

For `O=C(c1cc(Cc2n[nH]c(=O)c3ccccc23)ccc1F)N1CCN(C(=O)C2CC2)CC1`, the viability, T/C (compound 0.0316 µM) is 105% and 108%; the viability, T/C (compound 0.1 µM) is 103% and 108%; the viability, T/C (compound 0.316 µM) was 94.7% and 105%; the viability, T/C (compound 1 µM) was 92.7% and 102%; the viability, T/C (compound 3.16 µM) is 79% and 91.8%; the viability, T/C (compound 10 µM) is 68.4% and 69.3%. Also, the concentration for half-maximal inhibition (IC50) (curve of compound) was over 10000 nM.

With `CC(C)CC(NC(=O)C(Cc1ccccc1)NC(=O)c1cnccn1)B(O)O` (centres undefined), the viability, T/C by setting is: (compound 0.000316 µM) 114% and 119%; (compound 0.001 µM) 103% and 38.1%; (compound 0.00316 µM) 23.9% and 13.2%; (compound 0.01 µM) 1.83% and 5.29%; (compound 0.0316 µM) 2.67% and 1.3%; (compound 0.1 µM) 0.76% and 1.16%. The IC50 (curve of compound) was 2.17 nM and 0.852 nM.

As to `NS(=O)(=O)OCC1CC(n2ccc3c(NC4CCc5ccccc54)ncnc32)CC1O` (centres undefined) + NC1CC1c1ccc(-c2cccc(O)c2)cc1, the IC50 runs as follows: under setting [1], over 3000 nM; under setting [2], over 3000 nM; under setting [3], over 3000 nM; under setting [4], over 3000 nM; under setting [5], over 3000 nM. The viability, T/C is, setting by setting: (second compound 0.1 µM, first compound 0.00949 µM) 94.2%; (second compound 0.1 µM, first compound 0.03 µM) 97.9%; (second compound 0.1 µM, first compound 0.0949 µM) 107%; (second compound 0.1 µM, first compound 0.3 µM) 74.1%; (second compound 0.1 µM, first compound 0.949 µM) 64.9%; (second compound 0.1 µM, first compound 3 µM) 60%. Also, the viability, T/C reads like this: (second compound 0.316 µM, first compound 0.00949 µM) 91.8%; (second compound 0.316 µM, first compound 0.03 µM) 95.7%; (second compound 0.316 µM, first compound 0.0949 µM) 118%; (second compound 0.316 µM, first compound 0.3 µM) 81.4%; (second compound 0.316 µM, first compound 0.949 µM) 66%; (second compound 0.316 µM, first compound 3 µM) 61.6%. The viability, T/C (second compound 1 µM, first compound 0.00949 µM) was 94.4%; the viability, T/C (second compound 1 µM, first compound 0.03 µM) was 96.4%; the viability, T/C (second compound 1 µM, first compound 0.0949 µM) is 113%; the viability, T/C (second compound 1 µM, first compound 0.3 µM) was 72.7%; the viability, T/C (second compound 1 µM, first compound 0.949 µM) was 64.5%; the viability, T/C (second compound 1 µM, first compound 3 µM) is 60.7%. The viability, T/C runs as follows: (second compound 3.16 µM, first compound 0.00949 µM) 83.2%; (second compound 3.16 µM, first compound 0.03 µM) 102%; (second compound 3.16 µM, first compound 0.0949 µM) 132%; (second compound 3.16 µM, first compound 0.3 µM) 64.9%; (second compound 3.16 µM, first compound 0.949 µM) 64.7%; (second compound 3.16 µM, first compound 3 µM) 61.1%. Besides, the viability, T/C by setting is: (second compound 10 µM, first compound 0.00949 µM) 94.1%; (second compound 10 µM, first compound 0.03 µM) 105%; (second compound 10 µM, first compound 0.0949 µM) 132%; (second compound 10 µM, first compound 0.3 µM) 68.8%; (second compound 10 µM, first compound 0.949 µM) 61.8%; (second compound 10 µM, first compound 3 µM) 48.2%.
